Measured values taken from BindingDB's records for doi:10.1021/jm960083n (Dupont Pharmaceuticals, 1996).

biological target: T1, Dimer of Gag-Pol polyprotein [489-587] (Human immunodeficiency virus 1, UniProt P12497); assay: Protease Inhibition Assay; conditions: pH 5.5; 37 °C
T1 construct: 489-587
Method: Inhibition of HIV protease was measured by assay of the cleavage of a fluorescent peptide substrate. The fluorescent product (2-aminobenzoyl-Ala-Thr-His-Gln-Val-Tyr) was separated from the fluorescent substrate by anion-exchange HPLC on a Mono-Q anion-exchange column (Pharmacia), and fluorescence was monitored at an excitation wavelength of 330 nm and an emission wavelength of 430 nm. Ki values for inhibitor binding were estimated at fixed concentrations of substrate and inhibitor from fractional activity measurements by use of the modified Michaelis-Menten equation.

Compound | Ki [nM]
CC(=O)c1cccc(CN2C(=O)N(Cc3cccc(C(C)=O)c3)[C@H](Cc3ccc4c(c3)N(C)CCO4)[C@H](O)[C@@H](O)[C@H]2Cc2ccc3c(c2)N(C)CCO3)c1 [(4R,5S,6S,7R)-Hexahydro-5,6-dihydroxy-1,3-bis(3-acetylbenzyl)-4,7-bis((4-methyl-3,4-dihydro-2H-benzo[b][1,4]-oxazin-6-yl)methyl)-2H-1,3-diazapin-2-one] | 0.08
CC(=O)c1cccc(CN2C(=O)N(Cc3cccc(C(C)=O)c3)[C@H](Cc3ccc4c(c3)OCO4)[C@H](O)[C@@H](O)[C@H]2Cc2ccc3c(c2)OCO3)c1 [(4R,5S,6S,7R)-Hexahydro-5,6-dihydroxy-1,3-bis(3-acetylbenzyl)-4,7-bis((3,4-(methylenedioxy)phenyl)methyl)-2H-1,3-diazapin-2-one] | 0.043
COc1cc(C[C@@H]2[C@H](O)[C@@H](O)[C@@H](Cc3cc(OC)cc(OC)c3)N(Cc3cccc(C(C)=O)c3)C(=O)N2Cc2cccc(C(C)=O)c2)cc(OC)c1 [(4R,5S,6S,7R)-4,7-bis[(3,5-dimethoxyphenyl)methyl]-1,3-bis[(3-acetylphenyl)methyl]-5,6-dihydroxy-1,3-diazepan-2-one] | 0.4
CC(=O)c1cc(CN2C(=O)N(Cc3ccc(F)c(C(C)=O)c3)[C@H](Cc3ccc4c(c3)OCO4)[C@H](O)[C@@H](O)[C@H]2Cc2ccc3c(c2)OCO3)ccc1F [(4R,5S,6S,7R)-Hexahydro-5,6-dihydroxy-1,3-bis(4-fluoro-3-acetylbenzyl)-4,7-bis((3,4-(methylenedioxy)phenyl)methyl)-2H-1,3-diazapin-2-one] | 1.5
